These results are taken from patent EP4417607A1, “HETEROCYCLIC COMPOUND AS SOS1 INHIBITOR AND USES THEREOF” (Nanjing Zaiming Pharmaceutical Co., Ltd., priority 2021, dated 2023).

The subject of test [1] is p-ERK pathway in H358 cells. The test can be described thus: p-ERK pathway inhibition in H358 cells (Advanced phospho-ERK (Thr202/Tyr204) cellular kit, HTRF). The class given is cell-based. To be noted: Homo sapiens, NCI-H358, 1 h compound incubation. The method in brief: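 IC50 from an 8-point four-parameter fit of % inhibition of ERK Thr202/Tyr204 phosphorylation, measured by HTRF 665/620 ratio in lysates. H358 cells were seeded at 50000/well, starved overnight without serum, and exposed to compound 1 h at 37 °C; controls were cell-free (100%) and untreated (0%).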

Another test concerns the target T1, CYP2C9 (Homo sapiens, UniProt P11712).
T1 construct: Human liver microsome (Corning 452117); tissue Corning 452117; host or cells: human liver microsomes
Put plainly: CYP2C9 enzymatic activity inhibition in human liver microsomes. It is filed as in vitro ADME. Conditions: IC50, human liver microsome, substrate diclofenac. The protocol: The inhibition of CYP2C9, CYP2D6, and CYP3A4 enzymatic activity by the compound of the present invention was determined using the following method. • I. Experimental materials and instruments • 1. Human liver microsome (Corning 452117) • 2. Na2HPO4 (Sigma SLBZ6180) • 3. KH2PO4 (Sigma SLBT6559) • 4. NADPH (Solarbio 705Y021) • […] • 6. Positive substrates diclofenac (Sigma SLBV3438), dextromethorphan (TRC 3-EDO-175-1), and midazolam (Cerilliant FE01161704) • 7. Positive inhibitors sulfaphenazole (D. Ehrenstorfer GmbH 109012), quinidine (TCI WEODL-RE), and ketoconazole (Sigma 100M1091V) • 7. AB Sciex Triple Quad 5500 liquid chromatography-mass spectrometry system • II. Procedures • 1. Preparation of 100 mM phosphate-buffered saline (PBS): 7.098 g Na2HPO4 was weighed. 500 mL pure water was added. The mixture was dissolved by sonication to give solution A. 3.400 g KH2PO4 was weighed. 250 mL pure water was added. The mixture was dissolved by sonication to give solution B. The solution A was placed in a stirrer, and the solution B was slowly added until the pH reached 7.4 to prepare the 100 mM PBS buffer. • 2. A 10 mM NADPH solution was prepared with a 100 mM PBS buffer. A 10 mM stock solution of the compound of the present invention was diluted with DMSO to give a compound working solution at a concentration of 200× (6000, 2000, 600, 200, 60, 20, and 0 µM). The positive inhibitor stock solution was diluted with DMSO to give a positive inhibitor working solution at a concentration of 200× (sulfaphenazole, 1000, 300, 100, 30, 10, 3, and 0 µM; quinidine/ketoconazole, 100, 30, 10, 3, 1, 0.3, and 0 µM). Substrate working solutions (120 µM diclofenac, 400 µM dextromethorphan, and 200 µM midazolam) at a concentration of 200× were prepared with water, acetonitrile, or acetonitrile/methanol. • 3. […]
The values were calculated by Excel XLfit 5.3.1.3 to obtain IC50 values for the compounds of the present invention against CYP2C9, CYP2D6, and CYP3A4 as shown in Table 8. […]

T1 sequence (P11712 whole entry): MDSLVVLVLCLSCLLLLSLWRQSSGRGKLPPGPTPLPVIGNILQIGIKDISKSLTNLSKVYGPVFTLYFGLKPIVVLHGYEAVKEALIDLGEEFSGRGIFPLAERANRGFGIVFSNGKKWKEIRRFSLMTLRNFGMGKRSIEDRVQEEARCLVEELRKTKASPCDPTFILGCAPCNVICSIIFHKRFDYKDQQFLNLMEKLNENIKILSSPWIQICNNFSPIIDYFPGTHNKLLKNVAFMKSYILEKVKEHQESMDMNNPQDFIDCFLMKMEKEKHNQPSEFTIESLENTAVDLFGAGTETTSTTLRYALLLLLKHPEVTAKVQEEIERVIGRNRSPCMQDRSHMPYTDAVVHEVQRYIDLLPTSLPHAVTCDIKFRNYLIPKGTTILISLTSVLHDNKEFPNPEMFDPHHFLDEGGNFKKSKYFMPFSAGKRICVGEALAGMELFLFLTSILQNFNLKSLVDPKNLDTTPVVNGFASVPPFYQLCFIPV

For `[2H][C@](C)(Nc1nc(C)nc2c(N3CCOCC3)c(=O)n(C3(CF)CC3)cc12)c1cccc(C(F)F)c1F` [Example 55, (R)-4-((1-(3-(difluoromethyl)-2-fluorophenyl)ethyl-1-d)amino)-6-(1-(fluoromethyl)cyclopropyl)-2-methyl-8-morpholinylpyrido[4,3-d]pyrimidine-7(6H)-one], the IC50 in test [1] is 0.0303 µM; against CYP2C9 it was over 30 µM.
The matching figures for `Cc1nc(N[C@H](C)c2cccc(C(F)F)c2F)c2cn(C3(CF)CC3)c(=O)c(N3CCOC[C@@H]3C)c2n1` [Example 40, 4-(((R)-1-(3-(difluoromethyl)-2-fluorophenyl)ethyl)amino)-6-(1-(fluoromethyl)cyclopropyl)-2-methyl-8-((S)-3-methylmorpholine)pyrido[4,3-d]pyrimidine-7(6H)-one]: 0.0199 µM and over 30 µM.
Taken in the same sequence, the figures for `[2H]C([2H])([2H])Oc1c(=O)n(C2(CF)CC2)cc2c(N[C@H](C)c3cccc(C(F)F)c3F)nc(C)nc12` [Example 23, (R)-4-((1-(3-(difluoromethyl)-2-fluorophenyl)ethyl)amino)-6-(1-(fluoromethyl)cyclopropyl)-8-(methoxy-d3)-2-methylpyrido[4,3-d]pyrimidine-7(6H)-one] were 0.0449 µM and over 30 µM.
Turning to `Cc1nc(N[C@H](C)c2cccc(C(F)F)c2F)c2cn(C3(CF)CC3)c(=O)c(N3CCOCC3)c2n1` [Example 34, (R)-4-((1-(3-(difluoromethyl)-2-fluorophenyl)ethyl)amino)-6-(1-(fluoromethyl)cyclopropyl)-2-methyl-8-morpholinylpyrido[4,3-d]pyrimidine-7(6H)-one], in test [1], the midpoint of inhibition, the IC50, lay at 0.00918 µM.
Same read-out and setting: under `COc1c(=O)n(N2CCOCC2)cc2c(N[C@H](C)c3cccc(C(F)F)c3F)nc(C)nc12` [Example 20, (R)-4-((1-(3-(difluoromethyl)-2-fluorophenyl)ethyl)amino)-8-methoxy-2-methyl-6-morpholinepyrido[4,3-d]pyrimidine-7(6H)-one] stands 0.0419 µM.
